US20150297718A1, “ION[…] OF CATIONIC PRODRUGS FOR TOPICAL TREATMENT OF MUSCU[…] SKIN DISEASES” (priority 2014, published 2015)
pIC50: −log10 of the molar value. Where two headings read alike, the source gives them in different places.

How the values were obtained:
[1] = In vivo rat study of iontophoresis delivery on dorsal back skin: tissue and plasma drug concentrations; settings: for Drug concentration in the skin: delivered drug (prodrug or ketoprofen); for Concentration of ketoprofen converted from the prodrug in the skin: number in bracket
Procedure: (§1) The anode iontophoresis of ketoprofen cationic prodrugs KCE, KME and cathode iontophoresis of ketoprofen were compared with an in vivo rat study for evaluation of drug penetration into deep tissues. […] A prodrug solution was loaded in the cell. A constant current of 0.4 mA/cm^2 for iontophoresis was applied for 6 hours. At the end of the iontophoresis delivery, the rats were euthanized. The skin of the application site (under the glass cell) was washed with water, tape stripped once to remove residue drug on skin, and then dissected with a biopsy punch for the tissue layers: epidermis and dermis layer (depth 0-3 mm), subcutaneous tissue (fat pad) (3-4 mm), shallow muscle layer (4-6 mm), and deep muscle (6-10 mm). The tissues from the contralateral site were dissected with the same method. In addition, the plasma blood samples were obtained right before the experiment (time 0) and each hour during the experiment. The drug concentrations in the tissue and plasma samples were analyzed with a HPLC.
as §1, with “cationic prodrugs and cathode” for “cationic prodrugs KCE, KME and cathode”, “ketoprofen were also compared with” for “ketoprofen were compared with”, “rat study at 0.4 mA/cm^2 for a shorter duration of 2 hours for evaluation” for “rat study for evaluation”, “applied for 2 hours. At” for “applied for 6 hours. At”
as §1, with “cationic prodrugs and cathode” for “cationic prodrugs KCE, KME and cathode”, “ketoprofen were also compared with” for “ketoprofen were compared with”, “rat study at 0.057 mA/cm^2 for a duration of 6 hours for evaluation” for “rat study for evaluation”, “current of 0.057 mA/cm^2 for” for “current of 0.4 mA/cm^2 for”, “with a HPLC” for “with a HPLC.”
KPE is a prodrug of ketoprofen but with two methyl groups on the nitrogen atom, instead of three methyl groups on the nitrogen atom like KCE and KME. KPE can be presented as a hydrochloride salt. […] Anode iontophoresis delivery of KPE in this aqueous solution at 0.4 mA/cm^2 for a shorter duration of 2 hour was also conducted with the in vivo rat study.

melanoma cell (A375) = assay: In vitro cell viability assay on melanoma cell growth; assay type: cell-based; settings: read-out: 50% inhibition concentration (IC50) on melanoma cell (A375) growth
Description: The drug concentrations in the skin after the iontophoresis delivery of those prodrugs or their parent drug ketoprofen from different iontophoresis conditions are summarized in Table 2. The high drug concentration in the skin can be used for treatment of skin diseases including skin cancers such as melanoma. […] The ketoprofen concentrations in the skin from the iontophoresis delivery was not higher than its IC50 against the melanoma cell growth, but the KCE and KME concentrations in the skin from the anode iontophoresis delivery were higher than their IC50 against the melanoma cell growth. Thus, the anode iontophoresis of the prodrugs can provide high drug accumulation in the skin, and such high drug accumulation in the skin can be used for skin disease treatment.

[2] = Iontophoresis delivery into hairless rat knee joint: tissue and plasma drug concentrations; assay type: in vivo; settings: 0.4 mA/cm^2 for 20 min on knee
Procedure: Hairless rats were anaesthetized with isoflurane. A rubber disk shape applicator with a sponge that can hold 0.5 ml of the drug solution was used and a button Ag/AgCl electrode was used as current driving electrode. The delivery area is about 1.2 cm^2. After drug solution was loaded into the sponge, the applicator was placed on the knee cap skin and applied an electric current at 0.4 mA/cm^2 for 20 min. A return electrode was attached to the upper tail of the rat. After that, the skin was cleaned thoroughly with wet Kim wipes. The tissues (skin, muscle and joint) at the application site knee and also the contralateral site knee were collected at 30 min, 2 hr, 4 hr or 6 hr from the start of iontophoresis delivery. Three animals were used for each time point. Blood samples were also collected at appropriate time points. The tissue and blood samples were stored at −80° C. until further processing.

[3] = system: knee arthritis pain model (monosodium iodoacetate); assay: MIA knee osteoarthritis rat model treated with iontophoresis; assay type: in vivo; settings: 0.4 mA/cm^2 for 20 min on days 1, 2, 3 after MIA; versus iontophoresis of NaCl
Procedure: A knee arthritis pain model was established by injection of 50 μl of 60 mg/ml monosodium iodoacetate (MIA) into the left hind knee joint of 12 hairless rats, and they were divided into three groups. The knee diameters of both hind knees were measured. The difference in knee diameters between the left knee and right knee was used as the indicator of the swelling (or inflammation) of the left knee. In addition, the weight bearing of each hind limb was also measured with a Linton incapacitance tester. The percentage of the weight bearing by the left leg was used as an indicator of the pain level in the knee. At 1 day, 2 days, 3 days after the injection of MIA, the left knee of the rats in group 1 was treated with iontophoresis of NaCl to the left hind knee at 0.4 mA/cm^2 for 20 min, group 2 treated with iontophoresis of Kt to the left hind knee at 0.4 mA/cm^2 for 20 min, and group 3 treated with iontophoresis of KCE to the left hind knee at 0.4 mA/cm^2 for 20 min. The knee diameter and weight bearing were measured at day 0 before the MIA injection, and also at day 1, 2, and 3 after the MIA injection but before the iontophoresis treatment. They were also measured at day 4, 6, and 10 after the MIA injection.

[4] = In-vitro side-by-side diffusion cell study, iontophoresis across human epidermis skin; assay type: in vitro ADME; settings: KCE 26.6 μmol/ml, PE 4.9 μmol/ml, 0.2 mA
Description: The efficiency in anode iontophoresis delivery of KCE and that in cathode iontophoresis delivery of ketoprofen were compared with an in-vitro side-by-side diffusion cell study. […] The human cadaver epidermis skin was sandwiched between the two half cells with stratum corneum face the donor chamber. For anode iontophoresis of KCE, KCE chloride salt solution (26.6 μmol/ml) was placed in the donor cell. For cathode iontophoresis of ketoprofen (Kt), […] solution (26.6 μmol/ml) was placed in the donor cell. Phosphate buffer solution (0.15 M at pH 7.4) was placed in the receiver chamber. Constant current 0.2 mA was applied to the diffusion cell. The amount of drug penetrated through the skin was collected in the receive chamber and analyzed with a HPLC. The anode iontophoresis of the cationic prodrug KCE delivered 4 times more drug across the skin than that delivered by the cathode iontophoresis of ketoprofen (see FIG. 4A) from the in-vitro study.
Anode iontophoresis of the cationic ketoprofen prodrug KCE (26.6 μmol/ml) with the presence of phenylephrine (PE) (4.9 μmol/ml) in solution was evaluated with an in-vitro diffusion cell study across a human epidermis skin.

[5] = iontophoresis 0.057 mA/cm^2 for 6 hrs
[6] = iontophoresis 0.4 mA/cm^2 for 2 hrs
[7] = iontophoresis 0.4 mA/cm^2 for 6 hrs

| Structure (SMILES) | Plasma and contralateral tissue drug concentration ([1]; 0.057 mA/cm^2 for 6 hours) | Tissue drug concentrations / direct penetration at the application site ([1]; 0.057 mA/cm^2 for 6 hours) | Drug in tissues at the contralateral site ([1]; 0.4 mA/cm^2 for 2 hours) | Plasma drug concentration ([1]; 0.4 mA/cm^2 for 2 hours) | Tissue drug concentrations / direct penetration at the application site ([1]; 0.4 mA/cm^2 for 2 hours) | Drug in tissues at the contralateral site ([1]; 0.4 mA/cm^2 for 6 hours) | Plasma drug concentration ([1]; 0.4 mA/cm^2 for 6 hours) | Tissue drug concentrations / direct penetration at the application site ([1]; 0.4 mA/cm^2 for 6 hours) | Drug concentration in the skin [1, 5] | Concentration of ketoprofen converted from the prodrug in the skin [1, 5] | Drug concentration in the skin [1, 6] | Concentration of ketoprofen converted from the prodrug in the skin [1, 6] | Drug concentration in the skin [1, 7] | Concentration of ketoprofen converted from the prodrug in the skin [1, 7] | pIC50 (melanoma cell (A375); A375 cells) | Plasma Kt concentration [2] | Knee swelling (knee diameter difference left vs right) [3] | Weight bearing of the left leg (pain indicator) [3] | pIC50 (melanoma cell (A375); Homo sapiens, A-375, A375 cells) | Amount penetrated across the skin by anode iontophoresis, KCE alone versus KCE with phenylephrine [4] |
| --- | --- | --- | --- | --- | --- | --- | --- | --- | --- | --- | --- | --- | --- | --- | --- | --- | --- | --- | --- | --- |
| CC(C[N+](C)(C)C)OC(=O)C(C)c1cccc(C(=O)c2ccccc2)c1.[Cl-] (stereo not drawn) [KME, Ketoprofen β-methylcholine ester chloride salt] | we can detect the parent drug Kt in the plasma and also in the contralateral tissue | direct penetration into deep tissues that is up into the deep muscles | no ketoprofen or KME was detected in the tissues at the contralateral site | no ketoprofen or KME in rat plasma was detected | direct penetration into deep tissues and prodrug retaining in the tissues of the application site | No prodrug or Kt was detected in the contralateral tissues | No prodrug or Kt was detected in the plasma | High prodrug KME concentrations in the tissues of the drug application | 3725 μmol per kilogram of skin | 73 μmol per kilogram of skin | 6128 μmol per kilogram of skin | 35 μmol per kilogram of skin | 34768 μmol per kilogram of skin | 449 μmol per kilogram of skin | 2.81 | – | – | – | – | – |
| CC(C(=O)OCCCN(C)C)c1cccc(C(=O)c2ccccc2)c1.Cl (stereo not shown) [KPE] | – | – | – | lower than that from iontophoresis of Kt | Higher drug concentrations in the tissues at the drug application site than those from the contralateral site | – | – | – | – | – | 1883 μmol per kilogram of skin | 736 μmol per kilogram of skin | – | – | – | – | – | – | – | – |
| CC(C(=O)O)c1cccc(C(=O)c2ccccc2)c1 (stereo not shown) [Ketoprofen, reference compound] | – | only achieved skin deep penetration with no direct penetration into subcutaneous, shallow muscle or deep muscle tissue | – | – | only achieved skin deep penetration with no direct penetration into subcutaneous, shallow muscle or deep muscle tissue | – | high | can only penetrate skin deep | 59 μmol per kilogram of skin | – | 378 μmol per kilogram of skin | – | 417 μmol per kilogram of skin | – | – | high initial plasma Kt concentration than iontophoresis of the cationic prodrug KCE | not as effective | not as effective | 2.85 | – |
| CNC[C@H](O)c1cccc(O)c1 [PE, phenylephrine, reference compound] | – | – | – | – | – | – | – | – | – | – | – | – | – | – | – | – | – | – | – | Significant amount of PE was also delivered across the skin |
